Three compounds from ChEMBL document CHEMBL4325932, “Adaptable Small Ligand of CYP1 Enzymes for Use in Understanding the Structural Features Determining Isoform Selectivity” (ACS Med Chem Lett, 2018) can be followed below.

What all share (type): cell membranes
Experiment [1] deals with T1, Cytochrome P450 1A1 (Homo sapiens, UniProt P04798).
T1 sequence (P04798 whole entry): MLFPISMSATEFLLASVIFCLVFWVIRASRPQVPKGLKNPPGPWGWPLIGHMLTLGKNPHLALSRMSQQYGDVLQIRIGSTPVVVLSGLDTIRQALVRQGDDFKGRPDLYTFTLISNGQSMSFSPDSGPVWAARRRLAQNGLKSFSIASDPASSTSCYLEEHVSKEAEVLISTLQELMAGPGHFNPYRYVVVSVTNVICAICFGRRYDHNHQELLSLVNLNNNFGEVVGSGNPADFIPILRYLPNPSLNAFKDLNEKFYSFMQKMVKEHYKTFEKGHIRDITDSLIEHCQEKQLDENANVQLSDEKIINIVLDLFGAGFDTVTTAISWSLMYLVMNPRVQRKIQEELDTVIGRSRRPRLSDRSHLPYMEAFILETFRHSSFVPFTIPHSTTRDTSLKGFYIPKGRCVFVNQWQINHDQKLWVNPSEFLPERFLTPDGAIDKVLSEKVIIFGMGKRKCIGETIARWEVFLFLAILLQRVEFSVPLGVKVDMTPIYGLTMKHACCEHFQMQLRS
In words: Inhibition of recombinant human CYP1A1 expressed in Escherichia coli membranes co-expressing NADPH-P450 reductase assessed as reduction in ethoxyresorufin O-de-ethylation preincubated for 3 mins followed by NADPH addition and measured after 10 mins by fluorometric method.

The species named for experiment [2] is Homo sapiens. In words: Selectivity ratio of IC50 for recombinant human CYP1A2 expressed in Escherichia coli membranes to IC50 for recombinant human CYP1B1 expressed in Escherichia coli membranes.
For experiment [3], the species on record is Homo sapiens. In words: Selectivity ratio of IC50 for recombinant human CYP1A1 expressed in Escherichia coli membranes to IC50 for recombinant human CYP1B1 expressed in Escherichia coli membranes.
Experiment [4] is filed under the species Homo sapiens. In words: Selectivity ratio of IC50 for recombinant human CYP1A1 expressed in Escherichia coli membranes to IC50 for recombinant human CYP1A2 expressed in Escherichia coli membranes.
The target in experiment [5] is T2, Cytochrome P450 1B1 (Homo sapiens, UniProt Q16678).
T2 sequence (Q16678 whole entry): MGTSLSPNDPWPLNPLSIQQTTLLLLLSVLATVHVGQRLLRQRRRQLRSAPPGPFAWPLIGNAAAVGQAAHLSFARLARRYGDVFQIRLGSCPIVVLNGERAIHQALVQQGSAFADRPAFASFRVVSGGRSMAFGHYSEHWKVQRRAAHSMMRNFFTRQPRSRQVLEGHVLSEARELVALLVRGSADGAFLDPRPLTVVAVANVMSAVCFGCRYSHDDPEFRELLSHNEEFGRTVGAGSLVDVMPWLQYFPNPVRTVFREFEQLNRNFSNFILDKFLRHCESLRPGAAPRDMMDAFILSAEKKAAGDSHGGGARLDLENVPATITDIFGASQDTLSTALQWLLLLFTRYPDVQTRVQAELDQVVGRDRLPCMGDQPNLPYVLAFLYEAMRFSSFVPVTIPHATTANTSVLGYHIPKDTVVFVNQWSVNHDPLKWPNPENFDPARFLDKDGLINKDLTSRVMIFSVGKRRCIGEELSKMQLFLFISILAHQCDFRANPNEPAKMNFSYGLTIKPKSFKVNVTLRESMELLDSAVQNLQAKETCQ
Put plainly: Inhibition of recombinant human CYP1B1 expressed in Escherichia coli membranes co-expressing NADPH-P450 reductase assessed as reduction in ethoxyresorufin O-de-ethylation preincubated for 3 mins followed by NADPH addition and measured after 10 mins by fluorometric method.

In experiment [6] the target is T3, Cytochrome P450 1A2 (Homo sapiens, UniProt P05177).
T3 sequence (P05177 whole entry): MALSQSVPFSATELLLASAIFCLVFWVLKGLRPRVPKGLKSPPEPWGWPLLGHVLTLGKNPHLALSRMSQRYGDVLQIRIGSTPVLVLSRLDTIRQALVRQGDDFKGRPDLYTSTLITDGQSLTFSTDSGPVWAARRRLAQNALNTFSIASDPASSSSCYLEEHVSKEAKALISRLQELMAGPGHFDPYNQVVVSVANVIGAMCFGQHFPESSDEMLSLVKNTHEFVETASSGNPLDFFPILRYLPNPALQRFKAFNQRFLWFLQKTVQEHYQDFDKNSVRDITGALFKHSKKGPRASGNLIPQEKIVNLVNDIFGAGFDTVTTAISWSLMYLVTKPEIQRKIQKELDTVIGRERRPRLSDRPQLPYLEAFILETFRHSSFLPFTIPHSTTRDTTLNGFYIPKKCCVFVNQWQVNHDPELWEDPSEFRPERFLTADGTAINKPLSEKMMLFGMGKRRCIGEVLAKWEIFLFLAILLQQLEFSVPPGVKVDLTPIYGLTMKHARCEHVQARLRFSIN
Put plainly: Inhibition of recombinant human CYP1A2 expressed in Escherichia coli membranes co-expressing NADPH-P450 reductase assessed as reduction in ethoxyresorufin O-de-ethylation preincubated for 3 mins followed by NADPH addition and measured after 10 mins by fluorometric method.

As to `O=c1cc(-c2ccccc2)oc2c1ccc1ccccc12` [ALPHA-NAPHTHOFLAVONE], in experiment [1], the IC50 (in general, the concentration needed to halve the response being measured) is 55 nM.
Consider `COc1cc(/C=C/c2cccs2)cc(OC)c1`, for which the values for the Ratio IC50 in experiment [2], in experiment [3] and in experiment [4] were 5.5, 30.5 and 5.5, respectively.
For the compound `COc1cc(/C=C/c2cccs2)cc(OCCn2ccnc2)c1`, the figures for the Ratio IC50 in experiment [2], in experiment [3] and in experiment [4] were 0.4, 10.3 and 27.3, respectively. Moreover, the IC50 in experiment [5] turned out to be 4 nM; in experiment [1] it was 41 nM; in experiment [6], 1.5 nM.
